± gives the expanded uncertainty stated by the source.
Conditions: Liquid, Ebulliometric method (Recirculating still)

O=CO [formic acid]
vapor or sublimation pressure (388.15 K): 153.7 ± 1 kPa
vapor or sublimation pressure (398.15 K): 200.6 ± 1 kPa
